Reference: US20230391821A1, “METHODS FOR TARGET RELEASE FROM INTEIN COMPLEXES” (MERCK PATENT GMBH, priority 2020, published 2023)

Tests used:
[1] = tested on: intein complex of 13 kDa intein-C tagged target and intein-N ligand R46-358132; test: Example 4: intein cleavage with 10 min residence time during elution, with and without pH shift; assay type: biochemical
Procedure: The intein-N resin prototype column, carrying a third generation of intein-N ligand (R46-358132) was used for five intein purifications. The improvement of intein cleavage through additives such as imidazole (Examples 2, 3) was studied under longer residence times, with and without introducing a pH shift during the elution phase.
One reference run (cycle 1) was accomplished as a reference run for that study, using 5 minutes residence time during the whole purification process (0.2 ml/min flow rate). Further, the intein-N resin prototype column was used in additional four consecutive cycles (cycles 2-5) where a combinatorial method flow rate was given. […]
Depending on the used buffer system during the elution phase, the amount of eluted tagless 13 kDa target was about 0.40-0.91 mg. […] The total intein-C bound protein was calculated using the eluted target and the remaining intein-C target, that was released during the cleaning phase together with the remained intein-C fragments. The amount of eluted target during elution step 1 and step 2 was calculated for all five cycles using the A280-Absorbance and the molecular extinction coefficient of the cleaved target.
The yield of tagless released target during the elution phase was calculated per total bound amount of intein-C target. […]

[2] = tested on: intein complex of 13 kDa intein-C tagged target and intein-N ligand R44-358132; test: Example 3: intein cleavage under capture conditions (pH 9), no pH shift; assay type: biochemical; conditions: 13 kDa target, versus Capture A.1
Procedure: A 13 kDa intein-C tagged target was pre-purified using Strep-II Tag purification as described in example 1 and was diluted to a concentration of 1 mg/mL. The intein-N resin prototype column was equilibrated with 10 CV Capture Buffer (100 mM Tris, 200 mM NaCl, pH 9). The pre-purified intein-C target was loaded with 5 CV to the prototype column under capture conditions (100 mM Tris, 200 mM NaCl, pH 9). The impurities were washed out with 10 CV Capture Buffer (100 mM Tris, 200 mM NaCl, pH 9). The Capture Buffer designated A.1 (100 mM Tris, 200 mM NaCl, pH 9) was used as a reference in this setup. […]
The two different Capture Buffers A.1 and A.2 were used in two consecutive purification cycles. The A280-Absorbance chromatograms were recorded and analyzed to determine the amount of protein recovered from the elution and the CIP phase.
The amount of eluted target recovered from the elution step 1 and elution step 2 were determined using the A280-Absorbance and the molecular extinction coefficient of the cleaved target. The total bound amount of intein-C tagged protein was calculated using the eluted target, and the remaining intein-C target, that was released during the cleaning phase together with the remained intein-C fragments. The yield of tagless released target during the elution phase was calculated per total bound intein-C target. […]

[3] = tested on: intein complex of 13 kDa intein-C tagged target (Thioredoxin) and intein-N ligand R44-358132; test: Example 2-1: intein cleavage / tagless target release on intein-N column, Cleavage Buffer pH 7 with additives; assay type: biochemical, Escherichia coli (strain K12); conditions: 13 kDa target, versus Cleavage B.1
[4] = tested on: intein complex of intein-C tagged hEPO (19 kDa) and intein-N ligand R46-358132; test: Example 6: intein cleavage at pH 7, highly glycosylated target hEPO; assay type: biochemical, human; conditions: versus Cleavage B.1
[5] = tested on: intein complex of intein-C tagged S1-RBD (26 kDa) and intein-N ligand R49-358132; test: Example 6: intein cleavage at pH 7, highly glycosylated target S1-RBD; assay type: biochemical, SARS-CoV-2; conditions: versus Cleavage B.1

Question: Which results are given for `c1c[nH]cn1` [imidazole]?
Answer: elution amount in A280 chromatogram compared with buffer without additive ([1]; 13 kDa target, elution 1 and 2, FIG. 9): higher elution amount; % improvement in yield (E1) ([1]; cycle 3 (B.2) versus cycle 1 (B.1, 0.2 ml/min), cycle 5 (A.2) versus cycle 4 (A.1)): 12.51%; % improvement in yield (E1) [2]: 15.15%; % improvement in yield (E1) [3]: up to 11.15%; % improvement in yield (total) [4]: 12.22%; % improvement in yield (total) [5]: 1.95%
